Source: patent US9035073B2, “3-phenyl-3-methoxy-pyrrolidine derivatives useful as modulators of cortical catecholaminergic neurotransmission” (INTEGRATIVE RESEARCH LABORATORIES SWEDEN AB, priority 2008, dated 2015)
Where a name gives a salt, the structure may show the parent alone.

Tests used:
[1] = system: Serotonin (5-HT) in Striatum; assay: Microdialysis in awake and freely moving rats, 5-HT in striatum; format: in vivo, rat; conditions: 50 μmol/kg s.c., awake freely moving rats
Text: (§1) Male Sprague-Dawley rats weighing 220-320 g were used throughout the experiments. Before the experiment the animals were group housed, five animals in each cage, with free access to water and food. The animals were housed at least one week after arrival prior to surgery and use in the experiments. Each rat was used only once for microdialysis.
(§2) We use a modified version (Waters et al., 1994) of the I-shaped probe (Santiago M & Westerink B H C, 1990). The dialysis membrane we use is the AN69 polyacrylonitrile/sodiummethalylsulfonate copolymer (HOSPAL; o.d./i.d. 310/220 μm: Gambro, Lund, Sweden). In the dorsal striatum we use probes with an exposed length of 3 mm of dialysis membrane and in the prefrontal cortex the corresponding length is 2.5 mm. The rats were operated under isoflurane inhalationanesthesia while mounted into a Kopf stereotaxic instrument. Co-ordinates were calculated relative to bregma; dorsal striatum AP +1, ML ±2.6, DV −6.3; Pf cortex, AP +3.2, 8° ML ±1.2, DV −4.0 according to (Paxinos G & Watson C, 1986). The dialysis probe was positioned in a burr hole under stereotaxic guidance and cemented with phosphatine dental cement.
(§3) The rats were housed individually in cages for 48 h before the dialysis experiments, allowing them to recover from surgery and minimizing the risk of drug interactions with the anaesthetic during the following experiments. During this period the rats had free access to food and water. On the day of experiment the rats were connected to a micro perfusion pump via a swiwel and were replaced in the cage where they could move freely within its confinements. The perfusion medium was a Ringer's solution containing in mmol/l: NaCl; 140, CaCl2; 1.2, KCl; 3.0, MgCl2; 1.0 and ascorbic acid; 0.04 according to (Moghaddam B & Bunney B S, 1989). The pump was set to a perfusion speed of 2 μl/min and 40 μl samples were collected every 20 min. Each sample was analyzed at two HPLC systems. On an autoinjector (CMA 200) with a 10-port valve (Valco C10WE), holding two sample loops in series (4 μl and 20 μl), each brain dialysate sample is loaded in both loops simultaneously. […] The currents generated by the two EC detectors are converted to digital data and evaluated using Chromeleon software (Dionex) on a PC. The method sample turn over time was 4.5 min and two parallel experiments are normally analyzed simultaneously on the system. […]

[2] = system: Serotonin (5-HT) in Prefrontal Cortex; assay: Microdialysis in awake and freely moving rats, 5-HT in prefrontal cortex; format: in vivo, rat; conditions: 50 μmol/kg s.c., awake freely moving rats
Text: as §1, §2, §3

[3] = system: Norepinephrine (NA) in Striatum; assay: Microdialysis in awake and freely moving rats, NA in striatum; format: in vivo, rat; conditions: 50 μmol/kg s.c., awake freely moving rats
Text: as §1, §2, §3

[4] = system: Dopamine (DA) in Striatum; assay: Microdialysis in awake and freely moving rats, DA in striatum; format: in vivo, rat; conditions: 50 μmol/kg s.c., awake freely moving rats
Text: as §1, §2, §3

[5] = system: Dopamine (DA) in Prefrontal Cortex; assay: Microdialysis in awake and freely moving rats, DA in prefrontal cortex; format: in vivo, rat; conditions: 50 μmol/kg s.c., awake freely moving rats
Text: as §1, §2, §3

[6] = system: Norepinephrine (NA) in Prefrontal Cortex; assay: Microdialysis in awake and freely moving rats, NA in prefrontal cortex; format: in vivo, rat; conditions: 50 μmol/kg s.c., awake freely moving rats
Text: as §1, §2, §3

| SMILES | melting point [°C] | 5-HT Stri ± SEM, maximum effect compared to baseline values [1] | 5-HT PFC ± SEM, maximum effect compared to baseline values [2] | NA Stri ± SEM, maximum effect compared to baseline values [3] | DA Stri ± SEM, maximum effect compared to baseline values [4] | DA PFC ± SEM, maximum effect compared to baseline values [5] | NA PFC ± SEM, maximum effect compared to baseline values [6] |
| --- | --- | --- | --- | --- | --- | --- | --- |
| CCN1CCC(OC)(c2cccc(F)c2F)C1 (centres unmarked) (as salt: fumaric acid salt) [Example 13, 3-(2,3-difluorophenyl)-1-ethyl-3-methoxypyrrolidine] | 94 to 98 |  |  |  |  |  |  |
| CCN1CCC(OC)(c2ccc(F)c(F)c2)C1 (centres unmarked) (as salt: oxalic acid salt) [Example 10, 3-(3,4-difluorophenyl)-1-ethyl-3-methoxypyrrolidine] | 135 to 136 |  |  |  |  |  |  |
| CCN1CCC(OC)(c2cccc(Cl)c2F)C1 (single isomer, unassigned; (+)) (as salt: fumaric acid salt) [Example 2, (+)-3-(3-chloro-2-fluorophenyl)-1-ethyl-3-methoxypyrrolidine] | 131 to 133 |  |  |  |  |  |  |
| CCN1CCC(OC)(c2cccc(F)c2F)C1 (single isomer, unassigned; (+)) (as salt: fumaric acid salt) [Example 6, (+)-3-(2,3-difluorophenyl)-1-ethyl-3-methoxypyrrolidine] | 104 to 106 |  |  |  |  |  |  |
| COC1(c2cccc(Cl)c2F)CCNC1 (single isomer, unassigned; (+)) (as salt: oxalic acid salt) [Example 1, (+)-3-(3-chloro-2-fluorophenyl)-3-methoxypyrrolidine] | 183 to 185 |  |  |  |  |  |  |
| COC1(c2cccc(F)c2F)CCNC1 (single isomer, unassigned; (+)) (as salt: oxalic acid salt) [Example 5, (+)-3-(2,3-difluorophenyl)-3-methoxypyrrolidine] | 182 to 184 |  |  |  |  |  |  |
| COC1(c2cc(F)cc(F)c2)CCNC1 (single isomer, unassigned; (+)) (as salt: oxalic acid salt) [Example 14, (+)-3-(3,5-difluorophenyl)-3-methoxypyrrolidine] | 185 to 187 |  |  |  |  |  |  |
| COC1(c2cccc(Cl)c2F)CCNC1 (single isomer, unassigned; (+)) [Example 1, (+)-3-(3-chloro-2-fluorophenyl)-3-methoxypyrrolidine] |  | 350 ± 28% of control | 327 ± 58% of control | 164 ± 22% of control | 122 ± 8% of control | 459 ± 103% of control | 660 ± 38% of control |
| COC1(c2cccc(F)c2F)CCNC1 (single isomer, unassigned; (+)) [Example 5, (+)-3-(2,3-difluorophenyl)-3-methoxypyrrolidine] |  | 296 ± 55% of control | 260 ± 19% of control | 168% of control | 116 ± 0% of control | 353 ± 61% of control | 437 ± 25% of control |
| CCN1CCC(OC)(c2cccc(F)c2F)C1 (single isomer, unassigned; (+)) [Example 6, (+)-3-(2,3-difluorophenyl)-1-ethyl-3-methoxypyrrolidine] |  | 138 ± 9% of control | 157 ± 6% of control | 113% of control | 133 ± 9% of control | 297 ± 18% of control | 285 ± 17% of control |
| CCN1CCC(OC)(c2cccc(F)c2F)C1 (single isomer, unassigned; (-)) (as salt: fumaric acid salt) [Example 8, (−)-3-(2,3-difluorophenyl)-1-ethyl-3-methoxypyrrolidine] | 105 to 107 |  |  |  |  |  |  |
| CCN1CCC(OC)(c2cccc(F)c2F)C1 (single isomer, unassigned; (-)) [Example 8, (−)-3-(2,3-difluorophenyl)-1-ethyl-3-methoxypyrrolidine] |  | 187% of control | 197% of control | 169 ± 28% of control | 119 ± 3% of control | 252% of control | 282% of control |
